Reference: patent publication US20250333424A1, “ANTIVIRAL COMPOUNDS” (Gilead Sciences, Inc., priority 2024, published 2025)

System: monocytic THP1 cells infected with HIV VSV-G pseudotyped GFP-NEF reporter virus
Assay: cells
Assay type: cell-based
Details: Human immunodeficiency virus 1, THP-1, 24 h

| SMILES | EC50 [nM] |
| --- | --- |
| Cc1cc(/C=C/C#N)cc(C)c1Oc1nc(NC23CC(C#N)(C2)C3)nc2noc(C)c12 [Compound 111, (E)-3-((4-(4-(2-cyanovinyl)-2,6-dimethylphenoxy)-3-methylisoxazolo[3,4-d]pyrimidin-6-yl)amino)bicyclo[1.1.1]pentane-1-carbonitrile] | 30.6 |
| Cc1cc(/C=C/C#N)cc(C)c1Oc1nc(NC23CC(C#N)(C2)C3)nc2c(C)nn(C)c12 [Compound 121] | 53.2 |
| COCCn1cc2c(Oc3c(C)cc(/C=C/C#N)cc3C)nc(NC34CC(C#N)(C3)C4)nc2n1 [Compound 123, 3-[[4-[4-[(E)-2-cyanovinyl]-2,6-dimethyl-phenoxy]-2-(2-methoxyethyl)pyrazolo[3,4-d]pyrimidin-6-yl]amino]bicyclo[1.1.1]pentane-1-carbonitrile] | 59.8 |
| Cc1cc(/C=C/C#N)cc(C)c1Oc1nc(NC23CC(C#N)(C2)C3)nc2c1c(N)nn2C [Compound 125, 3-[[3-amino-4-[4-[(E)-2-cyanovinyl]-2,6-dimethyl-phenoxy]-1-methyl-pyrazolo[3,4-d]pyrimidin-6-yl]amino]bicyclo[1.1.1]pentane-1-carbonitrile] | 111 |
| Cc1cc(/C=C/C#N)cc(C)c1Oc1nc(NC23CC(C#N)(C2)C3)nc2[nH]nc(C(C)C)c12 [Compound 126, 3-[[4-[4-[(E)-2-cyanovinyl]-2,6-dimethyl-phenoxy]-3-isopropyl-1H-pyrazolo[3,4-d]pyrimidin-6-yl]amino]bicyclo[1.1.1]pentane-1-carbonitrile] | 119 |
| Cc1cc(/C=C/C#N)cc(C)c1Oc1nc(NC23CC(C#N)(C2)C3)nc2nn(C3CCOCC3)cc12 [Compound 127, 3-[[4-[4-[(E)-2-cyanovinyl]-2,6-dimethyl-phenoxy]-2-tetrahydropyran-4-yl-pyrazolo[3,4-d]pyrimidin-6-yl]amino]bicyclo[11.1.1]pentane-1-carbonitrile] | 149 |
| Cc1cc(/C=C/C#N)cc(C)c1Oc1nc(NC23CC(C#N)(C2)C3)nc2c1CNC2 [Compound 135, (E)-3-((4-(4-(2-cyanovinyl)-2,6-dimethylphenoxy)-6,7-dihydro-5H-pyrrolo[3,4-d]pyrimidin-2-yl)amino)bicyclo[1.1.1]pentane-1-carbonitrile] | 275 |
| Cc1cc(/C=C/C#N)cc(C)c1Oc1nc(NC23CC(C#N)(C2)C3)nc2c1C(C)NC2=O (stereo not shown) [Compound 136, (E)-3-((4-(4-(2-cyanovinyl)-2,6-dimethylphenoxy)-5-methyl-7-oxo-6,7-dihydro-5H-pyrrolo[3,4-d]pyrimidin-2-yl)amino)bicyclo[1.1.1]pentane-1-carbonitrile] | 15 |
| Cc1cc(/C=C/C#N)cc(C)c1Oc1nc(NC23CC(C#N)(C2)C3)nc2c1[C@@H](C)NC2=O [Compound 137, 3-[[(5R)-4-[4-[(E)-2-cyanovinyl]-2,6-dimethyl-phenoxy]-5-methyl-7-oxo-5,6-dihydropyrrolo[3,4-d]pyrimidin-2-yl]amino]bicyclo[1.1.1]pentane-1-carbonitrile] | 6.9 |
| Cc1cc(/C=C/C#N)cc(C)c1Oc1nc(NC23CC(C#N)(C2)C3)nc2c1[C@H](C)NC2=O [Compound 138, 3-[[(5S)-4-[4-[(E)-2-cyanovinyl]-2,6-dimethyl-phenoxy]-5-methyl-7-oxo-5,6-dihydropyrrolo[3,4-d]pyrimidin-2-yl]amino]bicyclo[1.1.1]pentane-1-carbonitrile] | 18.3 |
| C=C1NC(=O)c2nc(NC34CC(C#N)(C3)C4)nc(Oc3c(C)cc(/C=C/C#N)cc3C)c21 [Compound 139, (E)-3-((4-(4-(2-cyanovinyl)-2,6-dimethylphenoxy)-5-methylene-7-oxo-6,7-dihydro-5H-pyrrolo[3,4-d]pyrimidin-2-yl)amino)bicyclo[1.1.1]pentane-1-carbonitrile] | 8.27 |
| Cc1cc(/C=C/C#N)cc(C)c1Oc1nc(NC23CC(C#N)(C2)C3)nc2c1C(C)N(C)C2=O (stereo not shown) [Compound 140, (E)-3-((4-(4-(2-cyanovinyl)-2,6-dimethylphenoxy)-5,6-dimethyl-7-oxo-6,7-dihydro-5H-pyrrolo[3,4-d]pyrimidin-2-yl)amino)bicyclo[1.1.1]pentane-1-carbonitrile] | 14.3 |
| Cc1cc(/C=C/C#N)cc(C)c1Oc1nc(NC23CC(C#N)(C2)C3)nc2c1C(C)(O)N(C)C2=O (stereo not shown) [Compound 141, (E)-3-((4-(4-(2-cyanovinyl)-2,6-dimethylphenoxy)-5-hydroxy-5,6-dimethyl-7-oxo-6,7-dihydro-5H-pyrrolo[3,4-d]pyrimidin-2-yl)amino)bicyclo[1.1.1]pentane-1-carbonitrile] | 73 |
| CCn1cc2c(Oc3c(C)cc(/C=C/C#N)cc3C)nc(NC34CC(C#N)(C3)C4)nc2n1 [Compound 143, 3-[[4-[4-[(E)-2-cyanovinyl]-2,6-dimethyl-phenoxy]-2-ethyl-pyrazolo[3,4-d]pyrimidin-6-yl]amino]bicyclo[1.1.1]pentane-1-carbonitrile] | 58.5 |
| Cc1cc(/C=C/C#N)cc(C)c1Oc1nc(NC23CC(C#N)(C2)C3)nc2nn(C3CC3)cc12 [Compound 144, (E)-3-((4-(4-(2-cyanovinyl)-2,6-dimethylphenoxy)-2-cyclopropyl-2H-pyrazolo[3,4-d]pyrimidin-6-yl)amino)bicyclo[1.1.1]pentane-1-carbonitrile] | 81 |
| Cc1cc(/C=C/C#N)cc(C)c1Oc1nc(NC23CC(C#N)(C2)C3)nc2nn(CC3CC3)cc12 [Compound 145, (E)-3-((4-(4-(2-cyanovinyl)-2,6-dimethylphenoxy)-2-(cyclopropylmethyl)-2H-pyrazolo[3,4-d]pyrimidin-6-yl)amino)bicyclo[1.1.1]pentane-1-carbonitrile] | 89.1 |
| COc1ccc(CN2C(=O)C(C)(C)c3c(Oc4c(C)cc(/C=C/C#N)cc4C)nc(NC45CC(C#N)(C4)C5)nc32)cc1 [Compound 146, (E)-3-((4-(4-(2-cyanovinyl)-2,6-dimethylphenoxy)-7-(4-methoxybenzyl)-5,5-dimethyl-6-oxo-6,7-dihydro-5H-pyrrolo[2,3-d]pyrimidin-2-yl)amino)bicyclo[1.1.1]pentane-1-carbonitrile] | 35.4 |
| Cc1cc(/C=C/C#N)cc(C)c1Oc1nc(NC23CC(C#N)(C2)C3)nc2c1CNC2=O [Compound 153, (E)-3-((4-(4-(2-cyanovinyl)-2,6-dimethylphenoxy)-7-oxo-6,7-dihydro-5H-pyrrolo[3,4-d]pyrimidin-2-yl)amino)bicyclo[1.1.1]pentane-1-carbonitrile] | 27.5 |
| Cc1cc(/C=C/C#N)cc(C)c1Oc1nc(NC23CC(C#N)(C2)C3)nc2nc(C3CCOCC3)n(C(F)F)c12 [Compound 176, (E)-3-((6-(4-(2-cyanovinyl)-2,6-dimethylphenoxy)-7-(difluoromethyl)-8-(tetrahydro-2H-pyran-4-yl)-7H-purin-2-yl)amino)bicyclo[1.1.1]pentane-1-carbonitrile] | 45 |
| Cc1cc(/C=C/C#N)cc(C)c1Oc1nc(NC23CC(C#N)(C2)C3)nc2nc(-c3ccn(C)n3)n(C(F)F)c12 [Compound 177, (E)-3-((6-(4-(2-cyanovinyl)-2,6-dimethylphenoxy)-7-(difluoromethyl)-8-(1-methyl-1H-pyrazol-3-yl)-7H-purin-2-yl)amino)bicyclo[1.1.1]pentane-1-carbonitrile] | 45.3 |
| Cc1cc(/C=C/C#N)cc(C)c1Oc1nc(NC23CC(C#N)(C2)C3)nc2nc(C(F)F)n(C(F)F)c12 [Compound 178, (E)-3-((6-(4-(2-cyanovinyl)-2,6-dimethylphenoxy)-7,8-bis(difluoromethyl)-7H-purin-2-yl)amino)bicyclo[1.1.1]pentane-1-carbonitrile] | 25.7 |
| Cc1cc(/C=C/C#N)cc(C)c1Oc1nc(NC23CC(C#N)(C2)C3)nc2nc(C(C)O)n(C(F)F)c12 (stereo not shown) [Compound 179, (E)-3-((6-(4-(2-cyanovinyl)-2,6-dimethylphenoxy)-7-(difluoromethyl)-8-(1-hydroxyethyl)-7H-purin-2-yl)amino)bicyclo[1.1.1]pentane-1-carbonitrile] | 18.1 |
| Cc1cc(/C=C/C#N)cc(C)c1Oc1nc(NC23CC(C#N)(C2)C3)nc2c1[C@@H](C)N(C1CC1)C2=O [Compound 180, (R,E)-3-((4-(4-(2-cyanovinyl)-2,6-dimethylphenoxy)-6-cyclopropyl-5-methyl-7-oxo-6,7-dihydro-5H-pyrrolo[3,4-d]pyrimidin-2-yl)amino)bicyclo[1.1.1]pentane-1-carbonitrile] | 92.9 |
| Cc1cc(/C=C/C#N)cc(C)c1Oc1nc(NC23CC(C#N)(C2)C3)nc2c1[C@H](C)N(C1CC1)C2=O [Compound 181, (S,E)-3-((4-(4-(2-cyanovinyl)-2,6-dimethylphenoxy)-6-cyclopropyl-5-methyl-7-oxo-6,7-dihydro-5H-pyrrolo[3,4-d]pyrimidin-2-yl)amino)bicyclo[1.1.1]pentane-1-carbonitrile] | 20.5 |
| Cc1cc(/C=C/C#N)cc(C)c1Oc1nc(NC23CC(C#N)(C2)C3)nc2nc3n(c12)CCO3 [Compound 184, (E)-3-((4-(4-(2-cyanovinyl)-2,6-dimethylphenoxy)-6,7-dihydrooxazolo[2,3-f]purin-2-yl)amino)bicyclo[1.1.1]pentane-1-carbonitrile] | 36.5 |
| Cc1cc(/C=C/C#N)cc(C)c1Oc1nc(NC23CC(C#N)(C2)C3)nc2nc3n(c12)C[C@H](C)CO3 [Compound 185, (S,E)-3-((4-(4-(2-cyanovinyl)-2,6-dimethylphenoxy)-7-methyl-7,8-dihydro-6H-[1,3]oxazino[2,3-f]purin-2-yl)amino)bicyclo[1.1.1]pentane-1-carbonitrile] | 22.3 |
| Cc1cc(/C=C/C#N)cc(C)c1Oc1nc(NC23CC(C#N)(C2)C3)nc2nc3n(c12)C[C@@H](C)CO3 [Compound 186, (R,E)-3-((4-(4-(2-cyanovinyl)-2,6-dimethylphenoxy)-7-methyl-7,8-dihydro-6H-[1,3]oxazino[2,3-f]purin-2-yl)amino)bicyclo[1.1.1]pentane-1-carbonitrile] | 92 |
| Cc1cc(/C=C/C#N)cc(C)c1Oc1nc(NC23CC(C#N)(C2)C3)nc2nc3n(c12)CC1(CC1)CO3 [Compound 187, (E)-3-((4′-(4-(2-cyanovinyl)-2,6-dimethylphenoxy)-6′H,8′H-spiro[cyclopropane-1,7′-[1,3]oxazino[2,3-f]purin]-2′-yl)amino)bicyclo[1.1.1]pentane-1-carbonitrile] | 36.5 |
